2 compounds from article PMC8148049, “Fluorogenic Trp(redBODIPY) cyclopeptide targeting keratin 1 for imaging of aggressive carcinomas” (Chemical Science, 2019) can be followed below.

The subject of data set [1] is Protease XIV (from Streptomyces Griseus). The data set is described as follows: Protease stability assay (protease cocktail, HPLC-MS monitoring). The class given is in vitro ADME. The note with it: Protease XIV 5 μg mL-1 in PBS-citrate buffer pH 7.1, 37 °C, peptide 500 µM (from 5 mM DMSO stock), HPLC-MS with detection at 280 nm. The method, then: Given that proteases are abundant enzymes at tumour sites, we also investigated the potential degradation of the cyclopeptides 2 (unlabelled) and 8 [Trp(redBODIPY)-labelled] when subjected to strong proteolytic environments. We incubated both peptides with a commercially available protease cocktail at 37 °C and recorded their chemical stability by HPLC-MS over time. […] We also observed that the incorporation of the amino acid Trp(redBODIPY) into the structure of the cyclopeptide 2 slightly augmented its resistance to proteases, likely due to the inherent properties of unnatural amino acids.
5. Experimental Protocols for Biological Assays […]
(§1) Protease stability assays
(§2) The chemical stability of the peptides was assessed in the presence of Protease XIV (from Streptomyces Griseus) in PBS-citrate buffer (pH 7.1) at 37 °C. First, a stock of 5 μg mL-1 of the protease cocktail in the buffer was prepared. Initially, a concentrated 1 mg mL−1 solution was obtained by weighing 1.1 mg of the protease and dissolving it in 1.1 mL of buffer, and afterwards diluting it down to the desired 5 μg mL-1 stock. Then, 5 µL of the peptides (5 mM in DMSO) were diluted with 45 µL of the protease cocktail to obtain a final peptide concentration of 500 µM. Peptides were vortexed, covered in aluminium foil and shaken at 37°C for 2 h or 24 h. Aliquots (25 µL) were taken, proteins were precipitated by microcentrifugation at 4°C, and supernatants were collected for HPLC-MS with detection at 280 nm. […]

The next data set concerns HeLa cells. The data set is described as follows: Cell viability assay (TACS MTT Cell Proliferation assay). The class given is cell-based. Particulars: different concentrations of peptide, 2 h at 37 °C, vs untreated control, means ± s.d. (n = 4), p > 0.05. How it is done:
5. Experimental Protocols for Biological Assays
Spectroscopic characterisation
Spectral properties were measured in a BioTek Cytation 3 spectrophotometer. Absorbance and emission spectra were determined in the range of 400–700 nm (every 1 nm) at the indicated concentrations. Environmental sensitivity was measured by comparing the emission in PBS or in presence of phosphatidylcholine: cholesterol (7:1) liposomes (3.75 mg mL-1 PC).
Fluorescence emission was determined on a 384-well plate using a BioTek Cytation 3 spectrophotometer as indicated (excitation at 520 nm, 530-700 nm emission range, every 1 […]
as §1
as §2, with “h.” for “h. Aliquots (25 µL) were taken, proteins were precipitated by microcentrifugation at 4°C, and supernatants were collected for HPLC-MS with detection at 280 nm.”
Cell viability of HeLa cells was determined using the TACS® MTT Cell Proliferation assay (Trevigen). […]
A general note: Formazan colour is commonly taken as a measure of viable cells.

Values joined by “and” are separate entries in the source; they are usually repeats but may differ in a detail not shown here. Identical values can stand only once. *1 amine or outer side, *2 acyl side, *3 side chain or, on linkers, in order; H or OH if unused. Where a SMILES comes first, the peptide text is derived from it. [ ]: non-standard residue; d: D form. X1 = CC1=CC(C)=[N+]2C1=C(c1cccc(-c3[nH]c4ccccc4c3C[C@H](N[*:1])C(=O)[*:2])c1)c1ccc(-c3ccc(C)s3)n1[B-]2(F)F; Nle = CCCC[C@H](N)C(=O)O

Consider `CCCC[C@@H]1NC(=O)[C@H](Cc2c[nH]c3ccccc23)NC(=O)[C@H](CC(C)C)NC(=O)[C@H](Cc2ccccc2)NC(=O)[C@@H](CCCCN)NC(=O)[C@H](CCC(N)=O)NC(=O)[C@H](Cc2ccc(O)cc2)NC(=O)[C@H](C)NC(=O)[C@H](C)NC(=O)[C@H](CCC(=O)O)NC1=O` [compound 2, reference compound] (cyclo(AAYQ[dK]FLW[Nle]E)), for which, in data set [1], the “chemical stability 2 h” value was determined as 65% and the “chemical stability 24 h” value came out at 50%.
On to `CCCC[C@@H]1NC(=O)[C@H](Cc2c(-c3cccc(C4=C5C(C)=CC(C)=[N+]5[B-](F)(F)n5c4ccc5-c4ccc(C)s4)c3)[nH]c3ccccc23)NC(=O)[C@H](CC(C)C)NC(=O)[C@H](Cc2ccccc2)NC(=O)[C@@H](CCCCN)NC(=O)[C@H](CCC(N)=O)NC(=O)[C@H](Cc2ccc(O)cc2)NC(=O)[C@H](C)NC(=O)[C@H](C)NC(=O)[C@H](CCC(=O)O)NC1=O` [compound 8] (cyclo(AAYQ[dK]FL[X1][Nle]E)), for which the fluorescence increase in hydrophobic medium (fluorogenic) was < 70 fold and 70 fold. Also, in data set [1], the “chemical stability 2 h” value was above 95% and the “chemical stability 24 h” value worked out at 82%. Further, the “Viability of HeLa cells” value in the data set on HeLa cells was “Non-significant differences”.
